The source of these data is patent US9910044B2, “Methods for identifying arthropod repellents based on modulation of specific ionotropic receptors, and compounds and compositions identified by such methods” (The Regents of the University of California, priority 2013, dated 2018).

Where two headings read alike, the source gives them in different places.

In data set [1] the test system is Drosophila. Type of data set: in vivo, Drosophila melanogaster.
The subject of data set [2] is Drosophila. Briefly: Drosophila olfactory avoidance assay, 2-choice trap. The class given is in vivo, Drosophila melanogaster. As for the experimental part: For each trial, three- to six-day old flies (10 males and 10 females) were starved for 18 hours. Flies were transferred to a cylindrical 38.1 mm D×84.1 mm H chamber containing two traps each fashioned from an upturned 1.5 ml microcentrifuge tube with 2 mm removed from the tapered end. A pipette tip (1000 μl), was cut 2.5 cm from narrow end and 0.5 cm from top and inserted into the bottom of the inverted microcentrifuge tube. A 15 mm×16 mm #1 Whatmann filter paper was inserted in between the pipette tip and tip of microcentrifuge tube in a manner that entering flies cannot make physical contact with it. With reference to FIG. 2A, for the 1-choice test, a 50 μl sample of test odorant (50% DEET in DMSO) was applied to filter paper and 125 μl of 10% apple cider vinegar (ACV) is applied to the upturned lid of the microcentrifuge tube as attractant. With reference again to FIG. 2A, for the 2-choice test, two 10% ACV lured traps were placed in the cylinder, one with DMSO as the solvent (right) and another with DEET (left).

Data set [3] addresses human acetylcholinesterase (Homo sapiens, UniProt P22303). Conditions: Corbel et al., BMC Biol, 7, 2009; cited from earlier work.
The subject of data set [4] is mammalian cation channels. The note with it: cited from earlier work.

human acetylcholinesterase, sequence (P22303 32-614): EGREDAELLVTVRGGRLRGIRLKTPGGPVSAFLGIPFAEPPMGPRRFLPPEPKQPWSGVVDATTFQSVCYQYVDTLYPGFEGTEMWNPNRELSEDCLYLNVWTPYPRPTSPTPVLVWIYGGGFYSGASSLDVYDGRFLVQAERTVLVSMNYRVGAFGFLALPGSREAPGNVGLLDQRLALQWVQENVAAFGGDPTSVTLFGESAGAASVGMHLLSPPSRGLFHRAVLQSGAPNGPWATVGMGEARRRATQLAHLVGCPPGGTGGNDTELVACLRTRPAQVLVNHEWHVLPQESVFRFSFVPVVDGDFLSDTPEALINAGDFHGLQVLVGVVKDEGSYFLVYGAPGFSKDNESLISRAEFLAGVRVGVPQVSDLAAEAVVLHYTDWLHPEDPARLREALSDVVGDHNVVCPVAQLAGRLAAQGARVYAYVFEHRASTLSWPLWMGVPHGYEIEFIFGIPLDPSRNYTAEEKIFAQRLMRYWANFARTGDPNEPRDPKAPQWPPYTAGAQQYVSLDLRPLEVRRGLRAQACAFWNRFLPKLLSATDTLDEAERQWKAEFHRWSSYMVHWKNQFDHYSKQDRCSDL

As to `CCN(CC)C(=O)c1cccc(C)c1` [DEET, N,N-Diethyl-m-toluamide], the “avoidance of DEET-treated trap” value with Drosophila [1] (Ir25a neuron-TNTG flies (Ir25a-Ga14/UAS-TNTG), 10% ACV lure) is “substantially decreased”; with Drosophila [1] (Ir40a neuron-TNTG flies (Ir40a-Ga14/UAS-TNTG), versus controls, 10% ACV lure), “substantially decreased”; in the data set on Drosophila [1] (control flies Ir25a-Ga14/UAS-IMPTV, 10% ACV lure), “observed to avoid DEET”; in the data set on Drosophila [1] (control flies Ir40a-G4/+ and UAS-TNTG/+, 10% ACV lure), “observed to avoid DEET”; in the data set on Drosophila [1] (in vivo), “observed to avoid DEET”. Moreover, the “olfactory avoidance to DEET” value is “nearly abolished” in the data set on Drosophila [1] (in vivo) and “nearly abolished” in the data set on Drosophila [2] (two DGRP lines with mutations in Ir40a (RAL-158, RAL-272), DEET 50% in DMSO, 10% ACV lure). Further, the “avoidance response to volatile DEET” value with Drosophila [2] (Ir40a neuron-silenced flies (Ir40a-promoter-Ga14, UAS-kir), 10% ACV lure) was “avoidance was observed to be lost”; in the data set on Drosophila [2] (two control lines of the Ir40a-promoter-Ga14/UAS-kir experiment, 10% ACV lure) it was “robust and reproducible avoidance response”; in the data set with Drosophila [2] (wild-type Canton-S, DEET 50% in DMSO, 10% ACV lure), “robust and reproducible avoidance response”. Moreover, the DEET avoidance entry in the data set with Drosophila [2] (Ir40a-RNAi flies (Ir40a-G4 with UAS-Ir40a-RNAi) compared to control flies, 10% ACV lure) is “loss of DEET avoidance”. Also, the “olfactory DEET avoidance” value with Drosophila [2] (Ir93a-/- and Ir25a receptor mutant flies, FIG. 6B) is “found to be involved in olfactory DEET avoidance”. Also, the “inhibition of human acetylcholinesterase” value in data set [3] is listed as “inhibit”. For the same molecule, in data set [4], the “inhibition of mammalian cation channels” value is “inhibit”.
